Test results reported in patent US10774053B2, “HIV protease inhibitors” (Gilead Sciences, Inc., priority 2017, dated 2020).
Like-named read-outs stand apart in the source and are kept apart here.

Columns and labels:
[1] = target: recombinant human BACE-1 (Homo sapiens (Human), UniProt P56817); assay: Beta-secretase (BACE) inhibition assay, fluorogenic enzymatic assay; format: biochemical
Experimental: Beta-Secretase (BACE) Inhibition Assay
Inhibitory potency against β-secretase (BACE) was measured using an enzymatic assay with a fluorogenic readout. 50 nM of recombinant human BACE-1 (R&D Systems) and test compound at one of various concentrations were added to a reaction buffer containing 20 mM sodium acetate at pH 4.8, with 0.06% Triton X-100, and 1% DMSO. […] The total volume of the assay solution was 100 μL. […] The slopes of the progress curves were the measure of reaction rates. Reaction rates were plotted as a function of inhibitor concentration, and the data were fit with a four-parameter logistic fit using Graphpad PRISM software to yield IC50 values.

[2] = system: HIV-1 (IIIB) in MT-4 cells; assay: microbe, parasite or virus in culture; format: cell-based
[3] = Liver microsomal stability, human liver microsomes; conditions: human
Experimental: Liver Microsomal Stability Protocol
Test compounds and one control compound (verapamil) were tested in 3 different species in duplicate sets.
Test compound concentration: 1 uM; Protein concentration: 0.5 mg/mL (for dog, rat, and human liver microsomes); Cofactor: NADPH-Regenerating system (NRS) solution; Time-points: 2, 12, 25, 45, and 65 minutes.
Reaction Composition (in Each Incubation Well) Contains:
At an incubation temperature of 37° C., the reaction was started with addition of NADPH Regeneration System, at each time point, 25 uL of the reaction mixture was removed and added to a plate with 225 uL quenching solution (50% MeOH, 25% ACN, 25% H2O, and 200 nM labetalol as internal standard). After plates were vortexed, they were centrifuged for 30 minutes to remove proteins. About 100 μL supernatant was removed to a new plate and diluted with 150 μL water. About 20 μL of the mixture was injected into LC/MS/MS system to monitor the compound's response. In vitro measured t1/2 was used to calculate Clint values.

[4] = MT-4 cells, HIV-1, read-out: MT4 EC50
[5] = Human immunodeficiency virus 1, IIIB, MT4, MT-4 cells, HIV-1, read-out: MT4 EC50

Sequence of recombinant human BACE-1 (P56817 46-501): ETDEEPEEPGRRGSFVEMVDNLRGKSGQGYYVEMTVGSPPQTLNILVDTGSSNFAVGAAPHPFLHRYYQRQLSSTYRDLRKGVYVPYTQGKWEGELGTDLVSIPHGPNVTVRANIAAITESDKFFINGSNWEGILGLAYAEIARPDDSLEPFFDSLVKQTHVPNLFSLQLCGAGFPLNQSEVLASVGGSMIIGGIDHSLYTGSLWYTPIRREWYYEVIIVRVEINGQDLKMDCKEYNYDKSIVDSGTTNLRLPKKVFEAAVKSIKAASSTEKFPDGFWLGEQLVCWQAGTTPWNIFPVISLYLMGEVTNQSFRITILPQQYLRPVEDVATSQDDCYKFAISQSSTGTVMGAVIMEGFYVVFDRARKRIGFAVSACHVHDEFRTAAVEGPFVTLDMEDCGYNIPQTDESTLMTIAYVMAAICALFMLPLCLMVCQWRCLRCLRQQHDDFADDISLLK

Row | SMILES | half-life at 1 uM ([3]; liver microsomes) | IC50 [1] | EC50 [2, 5] | also measured
1 | CC(C)(C)C[C@]1(c2ccc(-c3cnn(C(F)F)c3)cc2)NC(=N)N([C@H](COC(=O)N[C@@H]2CC2(F)F)c2ccc(Cl)c(-n3ncnc3C(F)F)c2)C1=O (single isomer, unassigned) [Compound 335] | – | > 100000 nM | – | EC50 [2, 4]: 5.59 nM
2 | CC1(NC(=O)OC[C@H](c2ccc(Cl)c(-c3ncn[nH]3)c2)N2C(=N)N[C@](CC(C)(C)C(F)(F)F)(c3ccc(-c4cnn(C(F)F)c4)cc3)C2=O)CC1 [Compound 32] | – | > 100000 nM | 69.2 nM | –
3 | CC(C)(C)C[C@]1(c2ccc(-c3cnn(C(F)F)c3)cc2)NC(=N)N([C@H](COC(=O)NC(C)(C)C(F)F)c2ccc(Cl)c(-c3ncnn3C(F)F)c2)C1=O [Compound 90] | – | > 100000 nM | 12.2 nM | –
4 | CC(C)(C)C[C@]1(c2ccc(-c3cnn(C(F)F)c3)cc2)NC(=N)N([C@H](COC(=O)NC2(C(F)(F)F)CC2)c2ccc(Cl)c(-c3ncnn3C(F)F)c2)C1=O [Compound 113] | – | > 100000 nM | 7.75 nM | –
5 | CC(C)(F)C[C@]1(c2ccc(-c3cnn(C4CC4)c3)cc2)NC(=N)N([C@H](COC(=O)NC2(C(F)(F)F)CC2)c2ccc(Cl)c(-c3ncnn3C(F)F)c2)C1=O [Compound 131] | ≥ 6.58 h | > 100000 nM | 20.8 nM | –
6 | CC(C)(C)C[C@]1(c2ccc(-c3cnn(C(F)F)c3)cc2)NC(=N)N([C@H](COC(=O)NC2(C(F)(F)F)CC2)c2ccc(Cl)c(-n3ncnc3C(F)F)c2)C1=O [Compound 177] | – | > 100000 nM | 9.81 nM | –
7 | CC(C)(C)C[C@]1(c2ccc(-c3cnn(C(F)F)c3)cc2)NC(=N)N([C@H](COC(=O)NC(C)(C)C(F)F)c2ccc(Cl)c(-n3ncnc3C(F)F)c2)C1=O [Compound 185] | – | > 100000 nM | 12.6 nM | –
8 | CC(C)(C)C[C@]1(c2ccc(-c3ccnn3C(F)F)cc2)NC(=N)N([C@H](COC(=O)NC2(C(F)(F)F)CC2)c2ccc(Cl)c(-n3ncnc3C(F)F)c2)C1=O [Compound 212] | – | – | – | IC50 ([1]; 50 nM recombinant human BACE-1, pH 4.8, read-out: BACE IC50): > 100000 nM; EC50 [2, 4]: 11.9 nM
9 | CC(C)(C)C[C@]1(c2ccc(-c3cnn(C(F)F)c3)cc2)NC(=N)N([C@H](COC(=O)NCC(F)(F)F)c2ccc(Cl)c(-n3ncnc3C(F)F)c2)C1=O [Compound 218] | – | > 100000 nM | 9.89 nM | –
10 | CN(C(=O)OC[C@H](c1ccc(Cl)c(-n2cncn2)c1)N1C(=N)N[C@](CC(C)(C)C)(c2ccc(-c3cnn(C4CC4)c3)cc2)C1=O)C1CC1 [Compound 244] | – | > 100000 nM | 7.66 nM | –
11 | CC(C)(C[C@]1(c2ccc(-c3cnn(C4CC4)n3)cc2)NC(=N)N([C@H](COC(=O)NC2(C(F)F)CC2)c2ccc(Cl)c(-n3ncnc3C(F)F)c2)C1=O)C(F)(F)F [Compound 271] | – | > 100000 nM | 12.6 nM | –
12 | CC(C)(C)C[C@]1(c2ccc(-c3cnn(S(C)(=O)=O)c3)cc2F)NC(=N)N([C@H](COC(=O)NC2(C(F)(F)F)CC2)c2ccc(Cl)c(-n3ncnc3C(F)F)c2)C1=O [Compound 286] | – | > 100000 nM | 9.61 nM | –
13 | CC(C)(C[C@]1(c2ccc(-c3cnn(S(C)(=O)=O)c3)cc2)NC(=N)N([C@H](COC(=O)NC2(C(F)(F)F)CC2)c2ccc(Cl)c(-n3ncnc3C(F)F)c2)C1=O)C(F)(F)F [Compound 308] | ≥ 6.58 h | – | 16.3 nM | –
14 | CC(C)(C)C[C@]1(c2ccc(-c3cnn(C(F)F)c3)c(F)c2)NC(=N)N([C@H](COC(=O)N[C@@H]2CC2(F)F)c2ccc(Cl)c(-n3ncnc3C(F)F)c2)C1=O [Compound 339] | ≥ 6.58 h | – | 9.09 nM | –
15 | CC(C)(C)C[C@]1(c2ccc3c(C(F)F)nccc3c2)NC(=N)N([C@H](COC(=O)NC2(C(F)(F)F)CC2)c2ccc(Cl)c(-n3ncnc3C(F)F)c2)C1=O [Compound 348] | – | > 100000 nM | 7.46 nM | –
16 | Cn1c(=O)ccc2cc([C@@]3(CC(C)(C)C)NC(=N)N([C@H](COC(=O)NC4(C(F)(F)F)CC4)c4ccc(Cl)c(-n5ncnc5C(F)F)c4)C3=O)ccc21 [Compound 349] | – | > 100000 nM | – | EC50 ([2]; Human immunodeficiency virus 1, IIIB, MT4, read-out: MT4 EC50 (nM)): 36 nM
17 | CC(C)(C)C[C@]1(c2ccc3nc(-c4cnn(C(F)F)c4)ccc3c2)NC(=N)N([C@H](COC(=O)NC2(C(F)(F)F)CC2)c2ccc(Cl)c(-n3ncnc3C(F)F)c2)C1=O [Compound 350] | ≥ 6.58 h | – | 8.9 nM | –
18 | CC(C)(C)C[C@]1(c2ccc(-n3ccnn3)cc2)NC(=N)N([C@H](COC(=O)NC2(C(F)(F)F)CC2)c2ccc(Cl)c(-n3ncnc3C(F)F)c2)C1=O [Compound 351] | – | – | 17.9 nM | half-life at 1 uM ([3]; human liver microsomes): ≥ 6.58 h

More lines, main results first:

Row | half-life at 1 uM ([3]; liver microsomes) | SMILES | IC50 [1] | EC50 [2, 5] | also measured
19 | ≥ 6.58 h | CC(C)(C)C[C@]1(c2ccc(-c3cnn(S(C)(=O)=O)c3)c(F)c2)NC(=N)N([C@H](COC(=O)NC2(C(F)(F)F)CC2)c2ccc(Cl)c(-n3ncnc3C(F)F)c2)C1=O [Compound 290] | – | 11.6 nM | –
20 | ≥ 6.58 h | CC(C)(C)C[C@]1(c2ccc(-c3cnn(S(=O)(=O)C4CC4)c3)c(F)c2)NC(=N)N([C@H](COC(=O)NC2(C(F)(F)F)CC2)c2ccc(Cl)c(-n3ncnc3C(F)F)c2)C1=O [Compound 291] | – | 11.8 nM | –
21 | ≥ 6.58 h | Cn1ccc(-c2ccc([C@@]3(CC(C)(C)C)NC(=N)N([C@H](COC(=O)NC4CC4(F)F)c4ccc(Cl)c(-n5ncnc5C(F)F)c4)C3=O)cc2F)n1 (some centres unmarked) [Compound 295] | – | 7.33 nM | –
22 | ≥ 6.58 h | CC(C)(C)C[C@]1(c2ccc(-c3cnn(S(C)(=O)=O)c3)c(F)c2)NC(=N)N([C@H](COC(=O)NC2(C(F)F)CC2)c2ccc(Cl)c(-n3ncnc3C(F)F)c2)C1=O [Compound 303] | – | 11.2 nM | –
23 | ≥ 6.58 h | CC(C)(C)C[C@]1(c2ccc(-c3cccc(S(C)(=O)=O)c3)c(F)c2)NC(=N)N([C@H](COC(=O)NC2(C(F)(F)F)CC2)c2ccc(Cl)c(-n3ncnc3C(F)F)c2)C1=O [Compound 312] | – | 27.8 nM | –
24 | ≥ 6.58 h | CC(C)(C)C[C@]1(c2ccc(-c3cnn(C4CC4)c3)cc2Cl)NC(=N)N([C@H](COC(=O)NC2(C(F)(F)F)CC2)c2ccc(Cl)c(-n3ncnc3C(F)F)c2)C1=O [Compound 317] | – | 99.1 nM | –
25 | ≥ 6.58 h | CC(C)(C#N)C[C@]1(c2ccc(-c3ccn(C(F)F)n3)cc2)NC(=N)N([C@H](COC(=O)NC2(C(F)(F)F)CC2)c2ccc(Cl)c(-n3ncnc3C(F)F)c2)C1=O [Compound 336] | – | 74.7 nM | –
26 | ≥ 6.58 h | C[C@H](NC(=O)OC[C@H](c1ccc(Cl)c(-n2ncnc2C(F)F)c1)N1C(=N)N[C@](CC(C)(C)C)(c2ccc(-c3cnn(C(F)F)c3)cc2)C1=O)C(F)F [Compound 344] | – | 12.1 nM | –
27 | ≥ 6.58 h | CC(C[C@]1(c2ccc(-c3cnn(C(F)F)c3)cc2)NC(=N)N([C@H](COC(=O)NC2(C(F)(F)F)CC2)c2ccc(Cl)c(-n3ncnc3C(F)F)c2)C1=O)CS(C)(=O)=O (some centres unmarked) [Compound 345] | – | 134 nM | –
28 | ≥ 6.58 h | CC(C)(C)C[C@]1(c2ccc(-c3cn(C4CC4)nn3)c(F)c2)NC(=N)N([C@H](COC(=O)NC2(C(F)(F)F)CC2)c2ccc(Cl)c(-n3ncnc3C(F)F)c2)C1=O [Compound 352] | – | 10.9 nM | –
29 | ≥ 6.58 h | CC(C)(C)C[C@]1(c2ccc(-n3cnnc3)cc2)NC(=N)N([C@H](COC(=O)NC2(C(F)(F)F)CC2)c2ccc(Cl)c(-n3ncnc3C(F)F)c2)C1=O [Compound 359] | – | 424 nM | –
30 | ≥ 6.58 h | CC(C)(C)C[C@]1(c2ccc(C#Cc3cnn(C(F)F)c3)c(F)c2)NC(=N)N([C@H](COC(=O)NC2(C(F)(F)F)CC2)c2ccc(Cl)c(-n3ncnc3C(F)F)c2)C1=O [Compound 361] | – | 82 nM | –
31 | ≥ 6.58 h | C[C@H](NC(=O)OC[C@H](c1ccc(Cl)c(-n2ncnc2C(F)F)c1)N1C(=N)N[C@](CC(C)(C)C)(c2ccc(-c3cn(C4(C(F)(F)F)CC4)nn3)cc2)C1=O)C(F)(F)F [Compound 363] | – | 11.7 nM | –
32 | ≥ 6.58 h | CC(C)(C)C[C@]1(c2ccc(-c3cn[nH]n3)cc2)NC(=N)N([C@H](COC(=O)NC2(C(F)(F)F)CC2)c2ccc(Cl)c(-n3ncnc3C(F)F)c2)C1=O [Compound 372] | – | 47.3 nM | –
33 | ≥ 6.58 h | CC(C)(C)C[C@]1(c2ccc(-c3cnn(C4CC4)n3)cc2)NC(=N)N([C@H](CNS(=O)(=O)C2CC2)c2ccc(Cl)c(-n3ncnc3C(F)F)c2)C1=O [Compound 387] | – | 47.9 nM | –
34 | ≥ 6.58 h | CC(C)(C[C@]1(c2ccc(-c3cnn(C4CC4)n3)cc2)NC(=N)N([C@H](CNC(=O)CC(F)(F)F)c2ccc(Cl)c(-n3ncnc3C(F)F)c2)C1=O)C(F)(F)F [Compound 391] | – | 12.5 nM | –
35 | ≥ 6.58 h | CC(C)(C[C@]1(c2ccc(-c3cnn(C4CC4)n3)cc2)NC(=N)N([C@H](CNC(=O)OC2CC2)c2ccc(Cl)c(-n3ncnc3C(F)F)c2)C1=O)C(F)(F)F [Compound 392] | – | 24.3 nM | –
